Experimental data as given in EP4644375A1, “SUBSTITUTED HYDROQUINOLINES FOR THE TREATMENT OF GLIOBLASTOMA MULTIFORME” (Molius Saglik Teknolojileri Anonim Sirketi, priority 2024, dated 2025).
Each block holds one compound with its values, some of them ahead of it.

Legend:
U87-MG human glioma cell = test: Cell proliferation analysis (MTT); type: cell-based; details: 10 µM, two days, MTT; for activity at 10 µM / inhibition at 10 µM: Homo sapiens, U-87 MG, 48 h
[1] = tested on: U138-MG human glioma cell; test: Cell proliferation analysis (MTT); type: cell-based; details: 10 µM, two days, MTT; for activity at 10 µM / inhibition at 10 µM: Homo sapiens, 48 h
[2] = PAMPA permeability assay, gastrointestinal mimicking membrane; details: 500 µM, 18 hours, 37 °C
Method: Permeability assay and analyses were performed according to the manufacturer's instructions. […] After the loading of lipid solutions into the pores, all drug solutions and the permeability controls were put onto the lipid membrane in donor wells. The permeability assay was performed for 18 hours at 37 °C incubator. All samples were collected from acceptor wells after the incubation period was finished and the absorbance values were measured with equilibrium standards for normalization.

GBM xenograft rat model = test: In vivo GBM rat model: MRI analysis of tumor volumes; details: GBM rats, 30 mg/kg oral, 5 days, MRI 14th vs 28th day
Method: An in Vivo study was performed to assess the therapeutic potential of TR-G002, TR-G045, TR-G053, TR-G066, TR-G071 and TR-G091 in the GBM xenograft rat model when administered orally by gavage for five consecutive days. 152 female rats of the Sprague Dawley strain were allocated to the study. Six groups of sixteen females were given dose of 30 mg/kg of the respective target compounds. […] The study design can be seen in Fig. 11 and Table 10.
Female Sprague Dawley rats (age: 6-8 weeks; weight: 255-310 g; ATADEM, Erzurum, Turkey) were utilized in the study. Rats underwent anaesthesia with 5% isoflurane, maintained at 2% isoflurane (1 L/min oxygen), and were positioned in a stereotactic frame for cell implantation (Stoelting Co., IL). […] A burr hole was drilled 1-mm anterior and 3-mm lateral to the right bregma. A microsyringe (Hamilton 1700 series) containing 5×10^4 U87-MG cells suspended in 5 µL of medium at 37 °C was advanced to a depth of 4 mm into the brain. The cells were injected at a rate of 3 µL/ min. Bone wax was used to fill the burr hole to prevent cell suspension reflux. The incision was sutured, and 1 mL of Meloxicam (5 mg/mL; Metacam, Boehringer Ingelheim Vetmedica, Ingelheim, Germany) was administered via a subcutaneous injection.
Fourteen days after inoculation, tumor development in rats was visualized and confirmed through magnetic resonance imaging (MRI). Rats confirmed to have developed tumors were then distributed into six different groups for treatment. […] 9 days after the final treatment dose, the rats underwent another MRI scan and blood and brain samples were taken under anaesthesia.
The anaesthetic was administered via an intraperitoneal route on animals fixed in the supine position with parallel hind limbs. MRI was performed using a 3 Tesla clinical scanner (Magnetom Skyra; Siemens Healthineers, Erlangen, Germany). Rats were placed in the prone position. T2-SPACE (sampling perfection with application-optimized contrast using different flip angle Evolution) sequence was obtained to view the brain in coronal and transverse planes. (TR: 6000 ms, TE: 100 ms, voxel size: 0.5 × 0.5 × 1 mm, 34 slices, slice thickness: 2 mm, slice spacing: 0.6 mm). The volume measurements of brain tumors were performed manually. One radiologist calculated the tumour volume - manually measuring tumour length (L), width (W), and height (H) - and then calculated the tumour volume using the formula 0.5236 × L × W × H (Stuppner S et al., 2020).

permeability through the gastrointestinal mimicking membrane [2]: highly permeable
SMILES: O=C(COc1ccc2c(c1)CCC(=O)N2)NN=Cc1cccs1 [TR-G024, 2-((2-oxo-1,2,3,4-tetrahydroquinolin-6-yl)oxy)-N'-(thiophen-2-ylmethylene)acetohydrazide]
activity at 10 µM (U87-MG human glioma cell): 80%
inhibition at 10 µM (U87-MG human glioma cell): 20%
activity at 10 µM [1]: 70%
inhibition at 10 µM [1]: 30%

SMILES: O=C1CCc2cc(OS(=O)(=O)c3ccc([N+](=O)[O-])cc3)ccc2N1 [TR-G046, 2-oxo-1,2,3,4-tetrahydroquinolin-6-yl 4-nitrobenzenesulfonate]
activity at 10 µM (U87-MG human glioma cell): 60%
inhibition at 10 µM (U87-MG human glioma cell): 40%
activity at 10 µM [1]: 76%
inhibition at 10 µM [1]: 24%
tumor size (GBM xenograft rat model): reduced the tumor size

SMILES: Cc1[nH]c2ccccc2c1/C=N/NC(=O)COc1ccc2c(c1)CCC(=O)N2 [TR-G027, (E)-N'-((2-methyl-1H-indol-3-yl)methylene)-2-((2-oxo-1,2,3,4-tetrahydroquinolin-6-yl)oxy)acetohydrazide]
activity at 10 µM (U87-MG human glioma cell): 66%
inhibition at 10 µM (U87-MG human glioma cell): 34%
activity at 10 µM [1]: 54%
inhibition at 10 µM [1]: 46%

SMILES: O=C1CCc2cc(OS(=O)(=O)c3cccc(Cl)c3Cl)ccc2N1 [TR-G042, 2-oxo-1,2,3,4-tetrahydroquinolin-6-yl 2,3-dichlorobenzenesulfonate]
Cell Proliferation (%) (U87-MG human glioma cell): 70%
inhibition at 10 µM (U87-MG human glioma cell): 31%
Cell Proliferation (%) [1]: 83%
inhibition at 10 µM [1]: 17%

SMILES: CC(C)(C)c1ccc(COc2ccc3c(c2)CCC(=O)N3)cc1 [TR-G030, 6-((4-(tert-butyl)benzyl)oxy)-3,4-dihydroquinolin-2(1H)-one]
activity at 10 µM (U87-MG human glioma cell): 53%
inhibition at 10 µM (U87-MG human glioma cell): 47%
activity at 10 µM [1]: 63%
inhibition at 10 µM [1]: 38%

SMILES: O=C1CCc2cc(OCC(=O)Oc3ccccc3)ccc2N1 [TR-G004, phenyl 2-((2-oxo-1,2,3,4-tetrahydroquinolin-6-yl)oxy)acetate]
activity at 10 µM (U87-MG human glioma cell): 73%
inhibition at 10 µM (U87-MG human glioma cell): 27%
activity at 10 µM [1]: 88%
inhibition at 10 µM [1]: 12%

SMILES: O=C(COc1ccc2c(c1)CCC(=O)N2)N/N=C1\C(=O)Nc2ccc(F)cc21 [TR-G050, (Z)-N'-(5-fluoro-2-oxoindolin-3-ylidene)-2-((2-oxo-1,2,3,4-tetrahydroquinolin-6-yl)oxy)acetohydrazide]
activity at 10 µM (U87-MG human glioma cell): 69%
inhibition at 10 µM (U87-MG human glioma cell): 31%
activity at 10 µM [1]: 54%
inhibition at 10 µM [1]: 46%

SMILES: COc1ccc(NC(=O)COc2ccc3c(c2)CCC(=O)N3)cc1OC [TR-G077, N-(3,4-dimethoxyphenyl)-2-((2-oxo-1,2,3,4-tetrahydroquinolin-6-yl)oxy)acetamide]
activity at 10 µM (U87-MG human glioma cell): 88%
inhibition at 10 µM (U87-MG human glioma cell): 12%
activity at 10 µM [1]: 88%
inhibition at 10 µM [1]: 12%

SMILES: CCCc1ccc(/C=N/NC(=O)COc2ccc3c(c2)CCC(=O)N3)cc1 [TR-G028, (E)-2-((2-oxo-1,2,3,4-tetrahydroquinolin-6-yl)oxy)-N'-(4-propylbenzylidene)acetohydrazide]
activity at 10 µM (U87-MG human glioma cell): 64%
inhibition at 10 µM (U87-MG human glioma cell): 36%
activity at 10 µM [1]: 106%
inhibition at 10 µM [1]: -6%

SMILES: CS(=O)(=O)Oc1ccc2c(c1)CCC(=O)N2 [TR-G057, 2-oxo-1,2,3,4-tetrahydroquinolin-6-yl methanesulfonate]
activity at 10 µM (U87-MG human glioma cell): 85%
inhibition at 10 µM (U87-MG human glioma cell): 15%
activity at 10 µM [1]: 99%
inhibition at 10 µM [1]: 1%

SMILES: CC(C)CCN1C(=O)CCc2cc(OCCCCc3nnnn3C3CCCCC3)ccc21 [TR-G101, 6-(4-(1-cyclohexyl-1H-tetrazol-5-yl)butoxy)-1-isopentyl-3,4-dihydroquinolin-2(1H)-one]
activity at 10 µM (U87-MG human glioma cell): 76%
inhibition at 10 µM (U87-MG human glioma cell): 24%
activity at 10 µM [1]: 76%
inhibition at 10 µM [1]: 24%

SMILES: O=C(COc1ccc2c(c1)CCC(=O)N2)N/N=C1\C(=O)Nc2ccc([N+](=O)[O-])cc21 [TR-G056, (Z)-N'-(5-nitro-2-oxoindolin-3-ylidene)-2-((2-oxo-1,2,3,4-tetrahydroquinolin-6-yl)oxy)acetohydrazide]
activity at 10 µM (U87-MG human glioma cell): 99%
inhibition at 10 µM (U87-MG human glioma cell): 1%
activity at 10 µM [1]: 83%
inhibition at 10 µM [1]: 17%

SMILES: O=C(COc1ccc2c(c1)CCC(=O)N2)N/N=C/c1ccc(-c2ccc(Cl)cc2)cc1 [TR-G146, (E)-N'-((4'-chloro-[1,1'-biphenyl)-4-yl)methylene)-2-((2-oxo-1,2,3,4-tetrahydroquinolin-6-yl)oxy)acetohydrazide]
inhibition at 10 µM (U87-MG human glioma cell): 37%
inhibition at 10 µM [1]: 21%

SMILES: O=C1CCc2cc(OCC3CC(c4c(F)cccc4Cl)=NO3)ccc2N1 (stereo not shown) [TR-G150, 6-((3-(2-chloro-6-fluorophenyl)-4,5-dihydroisoxazol-5-yl)methoxy)-3,4-dihydroquinolm-2(1H)-one]
activity at 10 µM (U87-MG human glioma cell): 97%
inhibition at 10 µM (U87-MG human glioma cell): 3%
activity at 10 µM [1]: 79%
inhibition at 10 µM [1]: 21%

SMILES: CC(C)N(C(=O)Oc1ccc2c(c1)CCC(=O)N2)C(C)C [TR-G129, 2-oxo-1,2,3,4-tetrahydroquinolin-6-yl diisopropylcarbamate]
activity at 10 µM (U87-MG human glioma cell): 81%
inhibition at 10 µM (U87-MG human glioma cell): 19%
activity at 10 µM [1]: 74%
inhibition at 10 µM [1]: 26%

SMILES: O=C(COc1ccc2c(c1)CCC(=O)N2)N/N=C/c1cccc2ccccc12 [TR-G141, (E)-N'-(naphthalen-1-ylmethylene)-2-((2-oxo-1,2,3,4-tetrahydroquinolin-6-yl)oxy)acetohydrazide]
activity at 10 µM (U87-MG human glioma cell): 53%
inhibition at 10 µM (U87-MG human glioma cell): 47%
activity at 10 µM [1]: 65%
inhibition at 10 µM [1]: 35%

SMILES: CCOC(=O)COc1ccc2c(c1)CCC(=O)N2 [TR-G012, ethyl 2-((2-oxo-1,2,3,4-tetrahydroquinolin-6-yl)oxy)acetate]
activity at 10 µM (U87-MG human glioma cell): 71%
inhibition at 10 µM (U87-MG human glioma cell): 29%
activity at 10 µM [1]: 85%
inhibition at 10 µM [1]: 15%

SMILES: C=CC(=O)Oc1ccc2c(c1)CCC(=O)N2 [TR-G039, 2-oxo-1,2,3,4-tetrahydroquinolin-6-yl acrylate]
activity at 10 µM (U87-MG human glioma cell): 59%
inhibition at 10 µM (U87-MG human glioma cell): 41%
activity at 10 µM [1]: 75%
inhibition at 10 µM [1]: 25%

SMILES: O=C(COc1ccc2c(c1)CCC(=O)N2)N/N=C/c1ccc(-c2ccccc2)cc1 [TR-G145, (E)-N'-([1,1'-biphenyl}-4-ylmethylene)-2-((2-oxo-1,2,3,4-tetrahydroquinolin-6-yl)oxy)acetohydrazide]
activity at 10 µM (U87-MG human glioma cell): 49%
inhibition at 10 µM (U87-MG human glioma cell): 51%
activity at 10 µM [1]: 59%
inhibition at 10 µM [1]: 41%

SMILES: O=C1CCc2cc(OC(=O)Nc3ccccc3Br)ccc2N1 [TR-G136, 2-oxo-1,2,3,4-tetrahydroquinolin-6-yl (2-bromophenyl)carbamate]
Cell Proliferation (%) (U87-MG human glioma cell): 89%
inhibition at 10 µM (U87-MG human glioma cell): 11%
Cell Proliferation (%) [1]: 60%
inhibition at 10 µM [1]: 40%

SMILES: COc1ccc(S(=O)(=O)Oc2ccc3c(c2)CCC(=O)N3)cc1OC [TR-G085, 2-oxo-1,2,3,4-tetrahydroquinolin-6-yl 3,4-dimethoxybenzenesulfonate]
activity at 10 µM (U87-MG human glioma cell): 53%
inhibition at 10 µM (U87-MG human glioma cell): 47%
activity at 10 µM [1]: 71%
inhibition at 10 µM [1]: 29%

SMILES: O=C1CCc2cc(OC(=O)CN3CCN(c4ncccn4)CC3)ccc2N1 [TR-G023, 2-oxo-1,2,3,4-tetrahydroquinolin-6-yl 2-(4-(pyrimidin-2-yl)piperazin-1-yl)acetate]
activity at 10 µM (U87-MG human glioma cell): 83%
inhibition at 10 µM (U87-MG human glioma cell): 17%
activity at 10 µM [1]: 99%
inhibition at 10 µM [1]: 1%

SMILES: O=C(COc1ccc2c(c1)CCC(=O)N2)N/N=C/c1ccccc1 [TR-G035, (E)-N'-benzylidene-2-((2-oxo-1,2,3,4-tetrahydroquinolin-6-yl)oxy)acetohydrazide]
activity at 10 µM (U87-MG human glioma cell): 86%
inhibition at 10 µM (U87-MG human glioma cell): 14%
activity at 10 µM [1]: 74%
inhibition at 10 µM [1]: 26%

SMILES: CCCC(CCC)C(=O)Oc1ccc2c(c1)CCC(=O)N2 [TR-G062, 2-oxo-1,2,3,4-tetrahydroquinolin-6-yl 2-propylpentanoate]
activity at 10 µM (U87-MG human glioma cell): 87%
inhibition at 10 µM (U87-MG human glioma cell): 13%
activity at 10 µM [1]: 87%
inhibition at 10 µM [1]: 13%

SMILES: O=C1CCc2cc(OC(=O)c3cc(C(F)(F)F)ccc3F)ccc2N1 [TR-G036, 2-oxo-1,2,3,4-tetrahydroquinolin-6-yl 2fluoro-5-(trifluoromethyl)benzoate]
activity at 10 µM (U87-MG human glioma cell): 68%
inhibition at 10 µM (U87-MG human glioma cell): 32%
activity at 10 µM [1]: 81%
inhibition at 10 µM [1]: 19%
